The record followed here is ChEMBL document CHEMBL6096680, “Development of PRC1 Inhibitors Employing Fragment-Based Approach and NMR-Guided Optimization” (J Med Chem, 2025).

The IC50 is the concentration that inhibits the measured activity by half. For orientation: Kd means the concentration at which binding is half-saturated.

The test system of assay [1] is TEX. The assay is described as follows: Inhibition of PRC1 in human TEX cells assessed as decrease in global H2Aub level by measuring fold change at 3.1 uM incubated for 4 days by Western blot analysis (reference value: 1). The assay is classed as cell-based. To be noted: time 4.0 day.
Assay [2] deals with TEX. Kind of assay: Inhibition of PRC1 in human TEX cells assessed as decrease in global H2Aub level by measuring fold change at 25 uM incubated for 4 days by Western blot analysis (reference value: 1). The assay is classed as cell-based. The note with it: time 4.0 day. On the technique in general: In western blotting, separated proteins are transferred to a membrane and probed.

A short description of assay [3]: Inhibition of RING1B (10 to 116 residues)/PCGF1 (30 to 138 residues)(unknown origin) using HeLa nucleosome as substrate assessed as reduction in reduction in H2AK119 ubiquitination preincubated with compound for 1 hrs followed by flag-tagged ubiquitin and substrate addition and measured after 1 hrs by Western blot analysis. Set-up: species or system Homo sapiens.

The species entered for assay [4] is Homo sapiens. The assay is described as follows: Binding affinity to 15N-labeled RING1A (7 to 113 residues)/BMI1 (1 to 104 residues) (unknown origin) extracted from Escherichia coli BL21 (DE3) cells assessed as chemical shift perturbation by 1H-15N HSQC spectra based NMR titration analysis. To be noted: dose 30-120 µM.
The subject of assay [5] is TEX. Kind of assay: Upregulation of CEBPalpha gene expression in human TEX cells at 6.2 to 50 uM incubated for 4 days by RT-qPCR analysis. To be noted: dose 6.2-50 µM, time 4.0 day. The class given is functional, cell-based. Background: In qPCR the cycle at which signal appears reflects the starting amount.
The species entered for assay [6] is Homo sapiens. The assay is described as follows: Binding affinity to 15N-labeled RING1B (10 to 116 residues)/BMI1 (1 to 104 residues) (unknown origin) extracted from Escherichia coli BL21 (DE3) cells assessed as sum of A79, G83 and T89 chemical shift perturbations at 100 uM by NMR binding analysis.
Assay [7] can be described thus: Inhibition of 6His-tagged RING1B (10 to 116 residues)/BMI1 (1 to 104 residues) (unknown origin) extracted from Escherichia coli BL21 (DE3) cells preincubated with compound for 1 hrs followed by 3-(1-(4,26-dioxo-30-((3aS,4S,6aR)-2-oxohexahydro-1H-thieno[3,4-d]imidazol-4-yl)-7,10,13,16,19,22-hexaoxa-3,25-diazatriacontyl)-6-methoxy-1H-indol-4-yl)-5-(6-fluoro-1H-indol-4-yl)-4-isopropyl-1H-pyrrole-2-carboxylic acid addition and measured after 1 hrs by Alphascreen competition assay. Details: species or system Homo sapiens. For orientation: In Alpha technology, singlet oxygen from a donor bead excites a nearby acceptor bead.

Assay [8] is filed under the species Homo sapiens. The assay is described as follows: Binding affinity to 15N-labeled RING1B (10 to 116 residues)/BMI1 (1 to 104 residues) (unknown origin) extracted from Escherichia coli BL21 (DE3) cells assessed as chemical shift perturbation by 1H-15N HSQC spectra based NMR titration analysis. To be noted: dose 30-120 µM.
Assay [9] is filed under the species Homo sapiens. Kind of assay: Binding affinity to 15N-labeled RING1B (10 to 116 residues)/BMI1 (1 to 104 residues) (unknown origin) extracted from Escherichia coli BL21 (DE3) cells assessed as ratio of chemical shift perturbations at 1:2 compound concentration ration by NMR binding analysis.
Assay [10] has as its system TEX. The assay is described as follows: Inhibition of PRC1 in human TEX cells assessed as decrease in global H2Aub level by measuring fold change at 12.5 uM incubated for 4 days by Western blot analysis (reference value: 1). The class given is cell-based. The note with it: time 4.0 day.
Assay [11] in a line: Inhibition of RING1B (10 to 116 residues)-BMI1 (1 to 104 residues) (unknown origin) extracted from Escherichia coli BL21 (DE3) cells using HeLa nucleosome as substrate assessed as reduction in reduction in H2AK119 ubiquitination preincubated with compound for 1 hrs followed by flag-tagged ubiquitin and substrate addition and measured after 1 hrs by Western blot analysis. Set-up: species or system Homo sapiens.

Assay [12] concerns TEX. The assay is described as follows: Downregulation of CD34 gene expression in human TEX cells at 6.2 to 50 uM incubated for 4 days by RT-qPCR analysis. To be noted: dose 6.2-50 µM, time 4.0 day. The assay is classed as functional, cell-based.
The species entered for assay [13] is Homo sapiens. The assay is described as follows: Binding affinity to 15N-labeled 6His-tagged RING1B (10 to 116 residues)/PCGF1 (30 to 138 residues) (unknown origin) assessed as chemical shift perturbation by 1H-15N HSQC spectra based NMR titration analysis. The note with it: dose 30-120 µM.
The nature of assay [14]: Inhibition of RING1A (7 to 113 residues)/BMI1 (1 to 104 residues) (unknown origin) extracted from Escherichia coli BL21 (DE3) cells using HeLa nucleosome as substrate assessed as reduction in reduction in H2AK119 ubiquitination preincubated with compound for 1 hrs followed by flag-tagged ubiquitin and substrate addition and measured after 1 hrs by Western blot analysis. Details: species or system Homo sapiens.

The nature of assay [15]: Inhibition of 6His-tagged RING1A (7 to 113 residues)-BMI1 (1 to 104 residues) (unknown origin) extracted from Escherichia coli BL21 (DE3) cells preincubated with compound for 1 hrs followed by 3-(1-(4,26-dioxo-30-((3aS,4S,6aR)-2-oxohexahydro-1H-thieno[3,4-d]imidazol-4-yl)-7,10,13,16,19,22-hexaoxa-3,25-diazatriacontyl)-6-methoxy-1H-indol-4-yl)-5-(6-fluoro-1H-indol-4-yl)-4-isopropyl-1H-pyrrole-2-carboxylic acid addition and measured after 1 hrs by Alphascreen competition assay. Details: species or system Homo sapiens.

A short description of assay [16]: Binding affinity to RING1B (10 to 116 residues)/PCGF1 (30 to 138 residues) (unknown origin) assessed as dissociation constant by ITC analysis. Set-up: species or system Homo sapiens.
Assay [17] concerns TEX. Kind of assay: Inhibition of PRC1 in human TEX cells assessed as decrease in global H2Aub level by measuring fold change at 6.2 uM incubated for 4 days by Western blot analysis (reference value: 1). The class given is cell-based. To be noted: time 4.0 day.
Assay [18] is described as follows: Binding affinity to RING1A (7 to 113 residues)/BMI1 (1 to 104 residues) (unknown origin) extracted from Escherichia coli BL21 (DE3) cells assessed as dissociation constant by ITC analysis. Details: species or system Homo sapiens.
Assay [19] in a line: Binding affinity to RING1B (10 to 116 residues)/BMI1 (1 to 104 residues) (unknown origin) extracted from Escherichia coli BL21 (DE3) cells assessed as dissociation constant by ITC analysis. Details: species or system Homo sapiens.
Assay [20] is filed under the species Homo sapiens. The assay is described as follows: Binding affinity to 15N-labeled RING1B (10 to 116 residues)/BMI1 (1 to 104 residues) (unknown origin) extracted from Escherichia coli BL21 (DE3) cells assessed as sum of A79, G83 and T89 chemical shift perturbations at 200 uM by NMR binding analysis.

Active and inactive are the calls of the source. The calls are words filed in the database; no cut-off is given here.

Consider `CC(C)c1c(-c2cc(F)cc3[nH]ccc23)[nH]c(C(=O)O)c1-c1c(Cl)ccc2[nH]ccc12`, for which the fold change (FC) in [1] stood at 1.7; in assay [2], 0.17; in assay [10] it was 0.88; in assay [17], 0.9. The half-inhibitory concentration (IC50) came out at 1.8 µM in assay [3]; 2.3 µM in [7]; 2.8 µM in assay [11]; 2.6 µM in [14]; 2.4 µM in assay [15]. For the same molecule, the Activity result in assay [4] is “Dose-dependent-effect”; in [6] it was 248 Hz; in [8], “Dose-dependent-effect”; in [13], “Dose-dependent-effect”; in assay [20], 299 Hz. Further, the outcome in [5] and in assay [12] was Active. In addition, in assay [9], the Ratio was determined as 0.83. Further, the figures for the Kd in assay [16], in assay [18] and in assay [19] were 1.7 µM, 1.7 µM and 2 µM, respectively.
